Consider seven compounds from article PMC9194530, “Interaction of Colchicine-Site Ligands With the Blood Cell-Specific Isotype of β-Tubulin—Notable Affinity for Benzimidazoles” (Frontiers in Cell and Developmental Biology, 2022).

Molecules are shown by their SMILES. Like-named read-outs stand apart in the source and are kept apart here. Where only a bound is given, the exact number is not on record here.

Assay [1] concerns the target CeTb, colchicine site (Gallus gallus, UniProt P09207). Put plainly: Single-point MDL competitive binding inhibition screen, erythrocyte tubulin. Also noted: species or system chicken (Gallus gallus). Particulars: for Kd: from single-point data (50 µM drug) fitted with single-site isotherm, Eq. 4, read-out: CeTb Kd(app).
Assay [2] addresses T1, bovine brain microtubule protein (tubulin plus microtubule-associated proteins) (Bos taurus, UniProt Q6B856).
T1 construct: from tissue; host or cells: bovine brain; microtubule protein purified by the method of Williams and Lee, 1982
Nature of the assay: GTP-induced polymerization of bovine brain microtubule protein (turbidity at 350 nm). It counts as biochemical. Particulars: albendazole 12-60 µM, 15 µM microtubule protein, 1 mM GTP, 37 °C, 2% DMSO. As to the method: albendazole (ABZ). 15 µM bovine brain microtubule protein (tubulin plus microtubule-associated proteins, purified according to (Williams and Lee, 1982), in PME buffer was incubated with varying concentrations of albendazole for 40 min at room temperature.
The samples were equilibrated to 37 °C in the cell holder of a UV-Vis spectrophotometer (HP8453, Hewlett Packard, Palo Alto, CA). A baseline was recorded before adding GTP to a concentration of 1 mM to induce microtubule assembly. All samples had 2% (v/v) DMSO. The extent of polymerization was determined by the increase of turbidity as measured by the apparent absorbance at 350 nm.

Assay [3] addresses T2, BTb, colchicine site (Bos taurus, UniProt Q6B856).
T2 construct: from tissue; host or cells: mammalian brain: either rat brain (purified in house) or bovine brain (bought from Cytoskeleton #HTS02-A or Sigma-Aldrich #T4925)
Nature of the assay: Single-point MDL competitive binding inhibition screen, brain tubulin. Particulars: for inhibition at 50 µM: read-out: BTb % (inhibition of MDL binding). Also noted: species or system bovine or rat.

Assay [4] addresses T3, Brain tubulin (BTb), colchicine site (Bos taurus, UniProt Q6B856).
T3 construct: from tissue; host or cells: mammalian brain: either rat brain (purified in house) or bovine brain (bought from Cytoskeleton #HTS02-A or Sigma-Aldrich #T4925)
Nature of the assay: Competition titration with MDL (fluorescence), brain tubulin. It counts as binding, bovine or rat.

For assay [5], the target named is Erythrocyte tubulin (CeTb), colchicine site (Gallus gallus, UniProt P09207). Nature of the assay: biochemical. It counts as binding, chicken (Gallus gallus).
In assay [6] the target is Erythrocyte tubulin (CeTb) (Gallus gallus, UniProt P09207). Put plainly: Inhibition of taxol-induced tubulin polymerization (absorbance at 350 nm), erythrocyte tubulin. It counts as biochemical, chicken (Gallus gallus). Here is the method: (§1) Tubulin was polymerized at a concentration of 2 µM in PM buffer (0.1 M Pipes pH 7, 1 mM MgCl2) + 0.1 mM GTP in a volume of 60 µL. The reaction mixture was transferred to a 10-mm pathlength microcuvette (Hellma United States Inc., Plainview, NY) and placed in the cuvette holder of a SpectraMax M2 Multimode Microplate Reader (Molecular Devices, San Jose, CA) equipped with temperature control set at 37°C for these experiments. Drugs at 20 µM were added directly to the polymerization mixture and incubated for 15 min previous to starting the recordings. Tubulin polymerization kinetics was followed by recording the absorbance at 350 nm. After recording the baseline, tubulin polymerization was induced by the addition of 2 µM paclitaxel (taxol). The final concentration of DMSO in the mixtures was 4%–5% v/v.
(§2) FIGURE 2 Inhibition of tubulin polymerization by colchicine-site drugs. Tubulin from brain (A) or from erythrocytes (B) was incubated at 2 µM in polymerization buffer at 37°C, and the absorbance at 350 nm was registered for 10 min prior to starting the polymerization by the addition of taxol 2 µM (arrow). Drugs were included in polymerization buffer and used at a concentration of 20 µM.

Assay [7] addresses BTb. Also noted: method as in Head et al., 1985. To be noted: read-out: Kd nocodazole, published value; ref Head et al., 1985; cited from earlier work.
Assay [8] has as its target T4, Brain tubulin (BTb) (Bos taurus, UniProt Q6B856).
T4 construct: from tissue; host or cells: mammalian brain: either rat brain (purified in house) or bovine brain (bought from Cytoskeleton #HTS02-A or Sigma-Aldrich #T4925)
Nature of the assay: Inhibition of taxol-induced tubulin polymerization (absorbance at 350 nm), brain tubulin. It counts as biochemical, bovine or rat. Particulars: tubulin 2 µM, taxol 2 µM, drugs 20 µM; polymerization with taxol alone = 100%. Here is the method:
as §1, §2

Assay [9] addresses T5, Bovine brain tubulin (BBTb) (Bos taurus, UniProt Q6B856).
T5 construct: purchased Cytoskeleton, Inc. or Sigma-Aldrich #HTS02-A or #T4925; host or cells: bovine brain
Put plainly: MDL fluorescence dilution titration, bovine brain tubulin. It counts as binding. To be noted: 1 µM tubulin, PM buffer, 5% DMSO, 25°C; ± standard error of fit.

In assay [10] the target is T6, Rat brain tubulin (RBTb) (Rattus norvegicus, UniProt Q3KRE8).
T6 construct: Rat brain tubulin was purified from microtubule protein previously extracted from frozen rat brains; from tissue; host or cells: frozen rat brains; tubulin purified in house from microtubule protein
Nature of the assay: MDL fluorescence dilution titration, rat brain tubulin. It counts as binding. To be noted: 1 µM tubulin, PM buffer, 5% DMSO, 25°C; ± standard error of fit.

Assay [11] has as its target Chicken erythrocyte tubulin (CeTb) (Gallus gallus, UniProt P09207). Put plainly: MDL fluorescence dilution titration, chicken erythrocyte tubulin. It is filed as binding.
The target in assay [12] is Chicken brain tubulin (CBTb). Put plainly: MDL fluorescence dilution titration, chicken brain tubulin. It counts as binding. Particulars: 1 µM tubulin, PM buffer, 5% DMSO, 25°C; ± standard error of fit.
In assay [13] the target is rat brain tubulin. Also noted: method as in Cortese et al., 1977. Particulars: tritiated podophyllotoxin, ref Cortese et al., 1977, read-out: Kd podophyllotoxin, literature value; cited from earlier work.
In assay [14] the target is BBTb. Also noted: method as in Lin et al., 1989. Particulars: read-out: Kd combretastatin A4, literature value; ref Lin et al., 1989; cited from earlier work.
Where [15] appears, read: 50 µM drug, 1 µM tubulin, 5 µM MDL, single point.
The mark [16] stands for this setting: competition titration, 1 µM tubulin, 5 µM MDL, calculated with Equation 4, nb = no binding detected.
Setting [17] is: competition titration, 1 µM tubulin, 5 µM MDL, nb = no binding detected.
Where [18] appears, read: competition titration, 1 µM tubulin, 5 µM MDL.
Where [19] appears, read: competition titration, 1 µM tubulin, 5 µM MDL, calculated with Equation 4, read-out: Erythrocyte tubulin (CeTb) Kd.
Where [20] appears, read: summary of competition titrations with MDL, read-out: Erythrocyte tubulin (CeTb) Kd (Table 4, selected drugs).
The mark [21] stands for this setting: tubulin 2 µM, taxol 2 µM, drugs 20 µM, polymerization with taxol alone = 100%.

What is called IC50 is the concentration at which inhibition is half-maximal. For the compound `CCCSc1ccc2nc(NC(=O)OC)[nH]c2c1` [Albendazole], the “CeTb % (inhibition of MDL binding)” value in assay [1] (setting [15]) stood at 35%. The Kd was 31000 nM in assay [1], 35000 ± 4000 nM in assay [5] (setting [19]) and 35000 nM in [5] (setting [20]). Further, the “inhibition of polymerization of BTb” value is “little or no inhibition” in assay [2] and “not significantly inhibited” in [2] (listed as albendazole (ABZ)). In addition, the “BTb % (inhibition of MDL binding)” value in [3] is <1%. The “Brain tubulin (BTb) Kd” value in [4] (setting [16]) is reported as “nb”; in [4] (competition titration, 1 µM tubulin, 5 µM MDL, calculated with Equation 4, nb = no binding detected, listed as albendazole), “no detectable binding”. The “Brain tubulin (BTb) IC50” value in [4] (setting [17]) is “nb”. The compound also returned an IC50 in assay [5] (setting [18]) of 104000 ± 12000 nM.
Regarding `CCCOc1ccc2nc(NC(=O)OC)[nH]c2c1` [Oxibendazole], in assay [1] (setting [15]), the “CeTb % (inhibition of MDL binding)” value was 56%. Further, the Kd in assay [1] is 13000 nM; in assay [5] (setting [19]), 12000 ± 1900 nM; in assay [5] (setting [20]), 12000 nM. The “BTb % (inhibition of MDL binding)” value in assay [3] (setting [15]) was <1%; in assay [3] (50 µM drug, 1 µM tubulin, 5 µM MDL, single point, listed as oxibendazole) it was < 10%. For the same compound, the “Brain tubulin (BTb) Kd” value in [4] (setting [16]) was “nb”; in assay [4] (competition titration, 1 µM tubulin, 5 µM MDL, calculated with Equation 4, nb = no binding detected, listed as oxibendazole), “no detectable binding”. In addition, the “Brain tubulin (BTb) IC50” value in assay [4] (setting [17]) is recorded as “nb”. The IC50 in [5] (setting [18]) turned out to be 36000 ± 5600 nM.
The term inhibition denotes the share of the control response that was lost under treatment. For the compound `COC(=O)Nc1nc2ccc(C(=O)c3cccs3)cc2[nH]1` [Nocodazole], in assay [6], the “Erythrocyte tubulin (CeTb) % inhibition at 30 min” value is given as 90%. Also, in assay [1], the “CeTb % (inhibition of MDL binding)” value turned out to be 96%. Moreover, the Kd in assay [7] was 2500 nM. In [3], the inhibition at 50 µM was 85%. Also, in [8], the “Brain tubulin (BTb) % inhibition at 60 min” value is recorded as 55%.
Regarding `COc1ccc(OC)c(C(=O)/C(C)=C/c2ccc(N(C)C)cc2)c1` [MDL, (E)-1-(2,5-dimethoxyphenyl)-3-[4-(dimethylamino)phenyl]-2-methylprop-2-en-1-one], the Kd is 540 ± 82 nM in assay [9]; 450 ± 46 nM in assay [10]; 2600 ± 240 nM in assay [11] (1 µM tubulin, PM buffer, 5% DMSO, 25°C, ± standard error of fit, read-out: Kd,MDL, chicken erythrocytes (CeTb)); 510 ± 79 nM in [12]. The “Erythrocyte tubulin (CeTb) % inhibition at 30 min” value in [6] (setting [21]) is given as 38%. Besides, in assay [8], the “Brain tubulin (BTb) % inhibition at 60 min” value was 64%. Also, the “MDL affinity for CeTb, fold weaker than to brain tubulins” value in [11] (direct MDL titration) is reported as ~5 fold. Also, in [11] (direct MDL titration), the “Ratio: Kd of MDL and CeTb divided by Kd of MDL and BBTb” value was determined as 5.
`COC(=O)Nc1nc2ccc(C(=O)c3ccccc3)cc2[nH]1` [Mebendazole]: the “Erythrocyte tubulin (CeTb) % inhibition at 30 min” value in assay [6] (setting [21]) was 25%. For the same compound, in [1] (setting [15]), the “CeTb % (inhibition of MDL binding)” value turned out to be 90%. The Kd was 1800 nM in assay [1]; 1000 nM in assay [3] (from single-point data (50 µM drug) fitted with single-site isotherm, Eq. 4, read-out: BTb Kd(app)); 1300 ± 230 nM in assay [4] (competition titration, 1 µM tubulin, 5 µM MDL, calculated with Equation 4, nb = no binding detected, read-out: Brain tubulin (BTb) Kd); 2300 ± 250 nM in assay [5] (setting [19]); 2600 nM in assay [5] (setting [20]). In [3] (setting [15]), the inhibition at 50 µM is 82%. Further, the IC50 in [4] (competition titration, 1 µM tubulin, 5 µM MDL, nb = no binding detected, read-out: Brain tubulin (BTb) IC50) was 14000 ± 2500 nM; in [5] (setting [18]) it was 6800 ± 730 nM. Also, the “Ratio: Kd of the drug and CeTb divided by the Kd of the drug and BBTb” value in assay [5] (ratio >1 = weaker binding to CeTb) amounted to 1.9. For the same compound, in assay [8], the “Brain tubulin (BTb) % inhibition at 60 min” value stood at 92%.
As to `COc1cc([C@@H]2c3cc4c(cc3[C@H](O)[C@H]3COC(=O)[C@H]23)OCO4)cc(OC)c1OC` [Podophyllotoxin], in assay [6] (setting [21]), the “Erythrocyte tubulin (CeTb) % inhibition at 30 min” value is recorded as 95%. For the same compound, the inhibition at 50 µM in [1] (50 µM drug, 1 µM tubulin, 5 µM MDL, single point, read-out: CeTb % (inhibition of MDL binding)) was 81%; in [3], 90%. Further, the Kd was 730 nM in assay [3]; 370 ± 35 nM in assay [4] (Brain tubulin (BTb) Kd); 370 nM in assay [4] (Brain tubulin (BTb) Kd (Table 4, selected drugs)); 550 nM in [13]; 4900 ± 180 nM in assay [5] (setting [19]); 4900 nM in assay [5] (setting [20]). Also, the values for the IC50 in [4] and in assay [5] (setting [18]) were 4000 ± 1000 nM and 15000 ± 530 nM, respectively. The “Ratio: Kd of the drug and CeTb divided by the Kd of the drug and BBTb” value in assay [5] came out at 13. Moreover, the “Brain tubulin (BTb) % inhibition at 60 min” value in assay [8] is on record as 90%.
As for `COc1ccc(/C=C\c2cc(OC)c(OC)c(OC)c2)cc1O` [Combretastatin A4, cis-Combretastatin A4], the Kd in [14] is 120 nM. In assay [1], the “CeTb % (inhibition of MDL binding)” value was 64%. Also, the inhibition at 50 µM in assay [3] was determined as 92%.
